Patent US7405305B2 (Eli Lilly and Company, priority 2002, dated 2008)
Counter-ions that a name gives are not always drawn. Like-named read-outs stand apart in the source and are kept apart here.

How the values were obtained:
[1] = molecular target: recombinant human GSK-3β (Homo sapiens, UniProt P49841); experiment: Kinase Inhibition Assay (GSK-3β, 33P phosphoCREB peptide filter assay); type: biochemical
Excerpt: An important in vitro test is the ability of the compound to inhibit the activity of the GSK-3β enzyme. This test is done according to a standard protocol. (See Fiol, et al, A Secondary Phosphorylation of CREB^341 at Ser^129 Is Required for the cAMP-Mediated Control of Gene Expression: A Role for Glycogen Synthase Kinase-3 in the Control of Gene Expression, J. Biol. Chem., 269, 32187-32193 (1994)).
The catalysis of the reaction:
(pS)YR+AT^33P→KRREIL(^33pS)RRP(pS)YR [measured]+ADP by GSK-3β is measured in a reaction mixture comprised of the following: 50 mM MOPS (4-morpholinepropanesulfonic acid) pH 7.0; 50 μM phosphoCREB peptide; 50 μM ATP; 0.5 μCi ATP[γ-^33P]; 12.5 mM MgCl2; 0.03% Triton-X; 4% DMSO; and 1 nM recombinant human GSK-3β. The reaction is initiated by the addition of enzyme. The final reaction volume is 100 μL. The reaction is allowed to proceed for 60 minutes at room temperature and is stopped by the addition of 75 μL of 10% phosphoric acid. To capture KRREIL(^33pS)RRP(pS)YR formed in the reaction and to remove unreacted AT^33P, 160 μL of the stopped reaction mixture is transferred to a pre-wetted (0.75% phosphoric acid) phosphocellulose microfiltration plate [Millipore Cat.# MAPH NOB 50] and after 90 minutes incubation on the plate, the stopped reaction mixture is passed through the filter using a Titertek Map Extractor. The filter containing the trapped KRREIL(^33pS)RRP(pS)YR is washed with 220 μL of 0.75% phosphoric acid. Filter plates are blotted to remove droplets from the underdrain. The underdrain is removed from the filter and the filter is placed into a clear plate liner (Wallac, Inc.). Added to each well is 100 μL of Microscint 20 (Packard).
After standing at least six hours (preferably overnight), the plates are counted in a Trilux scintillation counter (Wallac, Inc.). The ability of a compound to inhibit GSK-3β is determined by including various concentrations of the compound in the reaction mixture and comparing the signal produced to the signal produced in a reaction mixture without the compound.
The test yields the molar concentration of the test compound that produces a 50% inhibition of the GSK-3β enzyme activity.

[2] = test system: 3T3-L1 adipocytes; experiment: Glycogen Synthesis Assay (14C-glucose incorporation into glycogen); type: cell-based; conditions: 1 μM compound
Procedure: This test measures the increase in the production of glycogen both in the absence and in the presence of insulin in the cells. This test is done according to standard protocols. (See Berger and Hayes, A High-Capacity assay for Activators of Glucose Incorporation into Glycogen in L6 Muscle Cells, Analytical Biochemistry, 261, 159-163 (1998).)
Briefly, 3T3-L1 adipocytes are plated and differentiated in a 96-well plate at 25,000 cells/well. The plate is serum-starved overnight. The serum-starvation media is removed just prior to assay, and the plate is washed with 100 μl/well Krebs-Ringer-Hepes buffer (KRBH). The KRBH is removed and 50 μl of compound (twice the amount of the final concentration) is added to the assay plate. Next, 50 μl of ^14C-labeled glucose is added to the assay plate at 0.1 μCi/well. The plate is then incubated at 37° C. for 2 hours.
The plate is washed with 100 μL/well of PBS, and the cells are lysed with 75 μl/well of 1N NaOH. The plate is heated at 70° C. for 20 minutes. An aliquot (50 μl) of the supernatant is transferred from the assay plate to a Millipore FC filter plate containing 120 μl/well of ice-cold ethanol. The plate is allowed to stand for 2 hours at 4° C. to facilitate precipitation. The ethanol is removed from the filter plate via a vacuum manifold, and the plate is washed with 100 μL/well of ice-cold 70% ethanol. The plate was allowed to dry overnight, and 75 μl/well of Microscint-20 was added to the filter plate. The plate was then counted on a Packard Topcount.

[3] = test system: β-catenin in AG04160C FAD lymphoblast cells; experiment: β-Catenin Protection Assay; type: cell-based, human; conditions: fold induction over basal β-catenin, 24 hours, concentration not given
Procedure: This test measures the fold induction over basal β-catenin and is performed according to standard protocols (Hedgepeth, C. M., Dev. Biol. 185, 82-91 (1997); Chen, G., et al., J. Neurochem., 72, 1327-1330 (1999); Hong, M., et al., J. Biol. Chem., 272, 25326-25332 (1997)).
The human familial Alzheimer's disease (FAD) presenilin-1 AG04160C lymphoblast cell line (Coriell Cell Repository, Camden, N.J.) is maintained as a suspension culture in RPMI 1640 (with L-Glutamine) supplemented with 10% fetal bovine serum and 1% penicillin-streptomycin in an atmosphere of 37° C. and 5% CO2. The AG04160C FAD lymphoblast cells are seeded in T-25 cm^2 flasks at 2.5 to 5.0×10^5 cells/ml in a total volume of 10 ml. Following 16-18 hours of growth, cells are treated with compound at concentrations of 0.1 μM, 1.0 μM, and 10 μM, and are incubated for an additional 24 hours. […] The total protein concentration in whole cell lysate samples is determined using the BCA method (Pierce). […] The β-catenin accumulation/stability is then quantified following densitometry analysis of protein bands. […]

[4] = test system: ZDF rats; experiment: Glucose Lowering Assay; type: in vivo, rat; conditions: oral gavage once daily, relative to insulin
Procedure: This test measures the effect of the test compound on blood glucose and triglycerides relative to insulin. (See Eldar-Finkleman, et al, Expression and Characterization of Glycogen Synthase Kinase-3 Mutants and Their Effect on Glycogen Synthase Activity in Intact Cells, Proc. Nat. Acad. Sci., 93, 10228-10233 (1996).)
ZDF rats (Charles River, Inc.) at six weeks of age are housed individually with free access to food and water. Rats are dosed with drug once daily by oral gavage, with the compound prepared as a suspension in 1% caboxymethylcellusolve/0.25% Tween 80 (CMC-Tween). Vehicle controls are dosed with CMC-Tween only. The duration of study varied according to the protocol used, with acute dosing studies lasting one day and dose escalation studies lasting seven days. Body weights and food consumption measurements are also performed once a week for seven-day studies. For measurement of blood glucose and triglycerides, blood samples of 600 μl are collected by the tail snip method. (The tail snip for blood sampling is as follows: 1-2 mm of the tail is snipped with a sharp blade. After collection of blood, a scab forms at the site of wound. This scab is removed and the tail is gently massaged for other subsequent bleedings.) Glucose and triglyceride determinations are performed on a Hitachi 912 metabolic analyzer, with a kit utilizing the Trinder method. […]

[5] = Table II, 1 nM recombinant human GSK-3β, 50 μM ATP, 60 minutes at room temperature, read-out: GSK-3β IC50

recombinant human GSK-3β, sequence (P49841 whole entry): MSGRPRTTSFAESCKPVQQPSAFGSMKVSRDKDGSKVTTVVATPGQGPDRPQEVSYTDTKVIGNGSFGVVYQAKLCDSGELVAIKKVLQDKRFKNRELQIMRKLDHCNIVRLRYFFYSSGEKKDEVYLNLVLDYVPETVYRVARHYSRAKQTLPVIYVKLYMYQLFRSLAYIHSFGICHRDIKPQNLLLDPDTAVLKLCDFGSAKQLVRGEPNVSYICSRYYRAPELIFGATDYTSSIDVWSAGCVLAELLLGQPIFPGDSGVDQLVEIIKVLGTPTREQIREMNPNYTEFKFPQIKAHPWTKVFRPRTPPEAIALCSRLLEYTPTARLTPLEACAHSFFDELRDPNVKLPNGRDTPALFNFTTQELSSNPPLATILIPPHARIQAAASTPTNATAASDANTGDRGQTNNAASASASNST

Question: `Cn1ccc2c(C3=C(c4cn(CCCO)c5ccccc45)C(=O)NC3=O)cccc21` [Example 1, 3-(1-Methyl-1H-indol-4-yl)-4-[1-(3-hydroxypropyl)-1H-indol-3-yl]pyrrole-2,5-dione] was tested. Which IC50 [1, 5] did it give?
Answer: 0.176 µM

Question: How did the IC50 [1] turn out when `COc1cc(C2=C(c3cn(CCN4CCN(C)CC4)c4ccccc34)C(=O)NC2=O)c2occc2c1` [Example 100, 3-(5-Methoxybenzofur-7-yl)-4-{1-[2-(4-methylpiperazin-1-yl)ethyl]-1H-indol-3-yl}pyrrole-2,5-dione] was run?
Answer: 0.143 µM

Question: Which IC50 [1, 5] does the source give for `CCN(CC)CCCc1cccc2c(C3=C(c4cccc5ccoc45)C(=O)NC3=O)cn(C)c12` [Example 102, 3-(Benzofur-7-yl)-4-[7-(3-diethylaminopropyl)-1-methyl-1H-indol-3-yl]pyrrole-2,5-dione] here?
Answer: 0.125 µM

Question: With `CCN(CC)CCCOc1ccc2c(c1)c(C1=C(c3cc(F)cc4ccoc34)C(=O)NC1=O)cn2C(C)C` [Example 114, 3-(5-Fluorobenzofur-7-yl)-4-[5-(3-diethylaminopropoxy)-1-isopropyl-1H-indol-3-yl]pyrrole-2,5-dione hydrochloride] as the compound, how does the IC50 [1, 5] read?
Answer: 0.133 µM

Question: `COc1ccc(C2=C(c3cn(CCCCN(C)C)c4ccccc34)C(=O)NC2=O)c2occc12` [Example 118] was tested. Which IC50 [1, 5] did it give?
Answer: 0.0702 µM

Question: Which “Glycogen Synthesis (fold increase at 1 μM) in absence of insulin” value [2] does the source give for `Cl.Cn1cc(C2=C(c3cccc4ccoc34)C(=O)NC2=O)c2cc(OCCNCC3CC3)ccc21` [Example 119, 3-(Benzofur-7-yl)-4-{5-[2-(cyclopropylmethylamino)ethoxy]-1-methyl-1H-indol-3-yl}pyrrole-2,5-dione hydrochloride] here?
Answer: 2.82× in absence of fold

Question: And the “Glycogen Synthesis (fold increase at 1 μM) in presence of insulin” value [2]?
Answer: 2.13× in presence of fold

Question: What about the “β-Catenin (fold increase)” value [3] of the same compound?
Answer: 4.9× fold

Question: What about the IC50 [1, 5] of the same compound?
Answer: 0.0095 µM

Question: How did the IC50 [1, 5] turn out when `Cn1cc(C2=C(c3ccc(O)c4ccoc34)C(=O)NC2=O)c2ccccc21` [Example 135, 3-(4-Hydroxybenzofur-7-yl)-4-(1-methyl-1H-indol-3-yl)pyrrole-2,5-dione] was run?
Answer: 0.0552 µM

Question: Which IC50 [1, 5] does the source give for `O=C1NC(=O)C(c2cccc3ccoc23)=C1c1cn(C2CCNCC2)c2ccccc12` [Example 139, 3-(Benzofur-7-yl)-4-[1-(piperidin-4-yl)-1H-indol-3-yl]pyrrole-2,5-dione] here?
Answer: 0.00574 µM

Question: For `CC(C)CN[C@H]1CC[C@H](n2cc(C3=C(c4cccc5ccoc45)C(=O)NC3=O)c3c(F)cccc32)CC1` [Example 150, 3-(Benzofur-7-yl)-4-[4-fluoro-1-(4-trans-isobutylaminocyclohexyl)-1H-indol-3-yl]pyrrole-2,5-dione hydrochloride], which “Glycogen Synthesis (fold increase at 1 μM) in absence of insulin” value [2] is on record?
Answer: 2.97× in absence of fold

Question: What about the “Glycogen Synthesis (fold increase at 1 μM) in presence of insulin” value [2] of the same compound?
Answer: 3.92× in presence of fold

Question: What about the “Glucose Lowering (percent increase vs. effect of insulin)” value [4] of the same compound?
Answer: 58%

Question: And the IC50 [1, 5]?
Answer: 0.0106 µM
